Measurements published in the OPERA property sets (Mansouri et al. 2018).

Structure (SMILES) | melting point [°C] | boiling point [°C] | log10 Henry constant (atm·m³/mol) | log10 vapour pressure (mmHg) | ready biodegradability | log10 Koc (L/kg) | log10 Koa | log10 biodegradation half-life (days)
NC(=O)c1cccc2ccccc12 | 206 | – | – | – | – | – | – | –
O=[N+]([O-])c1cccc(Cl)c1 | 46 | 236 | -4.87 | -1.01 | not readily biodegradable | – | – | –
COC(=O)c1ccc(N)cc1 | 110 | – | – | – | – | – | – | –
Cc1cc(C)c(O)c(C(=O)CC2CC(=O)NC(=O)C2)c1 | 201 | – | – | – | – | – | – | –
CC=C(CC)C(=O)NC(N)=O | 198 | – | – | – | – | – | – | –
O=C(Nc1ccc(Cl)cc1)Nc1ccc(Cl)c(C(F)(F)F)c1 | 214 | – | – | – | – | – | – | –
C=C(C)C(=O)OCCOCCOCCOCCOC(=O)C(=C)C | – | 220 | – | – | – | – | – | –
CCOC(=O)/C=C(C)/C=C/CC(C)CCCC(C)C (stereo not drawn) | – | – | – | -3.61 | – | – | – | –
Cc1coc(C)c1 | – | 94 | – | – | – | – | – | –
COc1ccc(OC)c([N+](=O)[O-])c1 | 72.5 | – | – | – | – | – | – | –
CCCOc1ccccc1 | -27 | 190 | – | – | – | – | – | –
CN(C)C(=O)Nc1ccc(Cl)c(Cl)c1 | 158 | – | – | -7.16 | not readily biodegradable | 2.4 | – | –
Cl/C=C\Cl | -64.9 | 54.4 | -2.17 | – | – | – | 2.56 | –
CC(=O)OC(OC(C)=O)c1cccc([N+](=O)[O-])c1 | 72 | – | – | – | – | – | – | –
C=C(Cl)c1ccccc1 | -23 | 199 | – | – | – | – | – | –
O=S(O)c1ccccc1 | 84 | – | – | – | not readily biodegradable | – | – | –
Fc1ccc(-c2ccccc2)cc1 | 74.2 | 253 | – | – | – | – | – | –
CCN1C(=O)CCC1=O | 26 | 236 | – | – | – | – | – | –
C=CC=CC=C | -12 | 78 | – | 1.95 | – | – | – | –
Cc1c(Cl)cccc1Nc1ccccc1C(=O)O | 207 | – | – | – | not readily biodegradable | – | – | –
CN(C)CCCOc1nn(Cc2ccccc2)c2ccccc12.Cl | 160 | – | – | – | – | – | – | –

Structure (SMILES) | melting point [°C] | boiling point [°C] | log10 Henry constant (atm·m³/mol) | log10 vapour pressure (mmHg) | ready biodegradability | log10 Koc (L/kg) | log10 Koa | log10 biodegradation half-life (days)
CC(=O)Oc1ccccc1C(=O)Oc1ccccc1 | 96 | – | – | – | – | – | – | –
CC(C)C(=O)Cl | -90 | 92 | – | – | – | – | – | –
O=C1C=C(Cl)C(=O)C(Cl)=C1 | 123 | – | – | – | – | – | – | –
Clc1ccc(-c2ccccc2)cc1Cl | – | – | -3.85 | – | – | – | – | –
BrCCCc1ccccc1 | – | 220 | – | – | – | – | – | –
CCCCCCCCCCCCCCCCCC(=O)OCC | 33 | – | – | -5.59 | – | – | – | –
NC=O | 2.55 | 220 | – | -1.21 | readily biodegradable | – | – | –
FC(F)OC(F)(F)C(F)Cl (stereo not drawn) | – | 56.5 | – | – | – | – | – | –
C[Si](C)(C)C | -99 | 26.6 | – | 2.86 | – | – | – | –
CC(C)COCOCC(C)C | – | 166 | – | – | – | – | – | –
COc1c(Cl)c(Cl)cc(Cl)c1Cl | 88.5 | – | – | – | – | – | – | –
CC1=C(/C=C/C(C)=C/C=C/C(C)=C/C=O)C(C)(C)CCC1 | 63 | – | – | – | – | – | – | –
CNC(=O)COc1ccccc1OCC(O)CNC(C)(C)C (stereo not drawn) | 96.5 | – | – | – | – | – | – | –
C[C@]12C=CC(=O)C=C1[C@@H](F)C[C@@H]1[C@@H]2[C@@H](O)C[C@@]2(C)[C@H]1CC[C@]2(O)C(=O)CO | 210 | – | – | – | – | – | – | –
CC(C(N)=O)n1nc2ccccc2n1 (stereo not drawn) | 170 | – | – | – | – | – | – | –
CCCC(=O)C(=O)CCC | – | 168 | – | – | – | – | – | –
Oc1ccccc1C=NCCN=Cc1ccccc1O | 128 | – | – | – | – | – | – | –
CN1C(C(=O)Nc2ccccn2)=C(O)c2ccccc2S1(=O)=O | 199 | – | – | – | – | – | – | –
C=C[C@H]1C[N@@]2CC[C@H]1C[C@H]2C12Nc3ccccc3C1(O)CCO2 (stereo partly drawn) | 186 | – | – | – | – | – | – | –
CCOC(=O)c1ccccn1 | 1 | 243 | – | – | – | – | – | –
N#CC(C#N)=C(C#N)C#N | 199 | – | – | – | – | – | – | –

Structure (SMILES) | melting point [°C] | boiling point [°C] | log10 Henry constant (atm·m³/mol) | log10 vapour pressure (mmHg) | ready biodegradability | log10 Koc (L/kg) | log10 Koa | log10 biodegradation half-life (days)
C=C[C@@]1(C)CC[C@H]2C(=CC[C@@H]3[C@]2(C)CCC[C@@]3(C)C(=O)O)C1 | 160 | – | – | – | – | – | – | –
CC(=O)Oc1ccc2c(c1)CC[C@@H]1[C@@H]2CC[C@]2(C)C(=O)[C@H](OC(C)=O)C[C@@H]12 | 180 | – | – | – | – | – | – | –
O=[N+]([O-])c1cc(Cl)c(Cl)c(Cl)c1Cl | – | – | – | – | – | 4.23 | – | –
Cc1ccc(O)c(C)c1C | 81 | 236 | – | – | – | – | – | –
Cc1cc(Cl)c(O)c(Cl)c1 | 39 | 231 | – | – | – | – | – | –
CCc1cc(C)c(C)cc1C | -13.5 | 213 | – | – | – | – | – | –
O=C(O)c1cc(Oc2ccc(C(F)(F)F)cc2Cl)ccc1[N+](=O)[O-] | 150 | – | – | – | – | 2.05 | – | –
CC(C)CC(C)(C)C | -107 | 99.2 | – | 1.69 | not readily biodegradable | – | – | 1.6
O=[N+]([O-])c1ccc(Br)cc1 | 127 | 256 | – | – | – | 2.42 | – | –
CC1=NN(c2ccccc2)C(=O)C1 | 129 | – | – | – | – | – | – | –
CC(=O)CC(C)=O | -23 | 138 | – | 0.471 | readily biodegradable | – | – | –
C1CCC(CCC2CCCCC2)CC1 | 11.5 | 272 | – | – | – | – | – | –
CCCCCCCCCc1ccc(O)cc1 | 42 | – | – | -3.09 | – | 3.84 | – | –
OC[C@@H]1CCCN2CCCC[C@H]12 | 70 | 270 | – | – | – | – | – | –
CCC[C@@H](C)S | -169 | 113 | – | – | – | – | – | –
OCC(c1ccccc1)c1ccccc1 | 64.5 | – | – | – | – | – | – | –
O=[N+]([O-])c1ccc(Oc2ccccc2)cc1 | 61 | 320 | – | – | – | – | – | –
CC(C)OC=O | -80 | 68.2 | – | 2.14 | – | – | – | –
CC[C@@H](C(=O)[C@@H](C)[C@@H](O)[C@H](C)[C@@H]1O[C@@H]([C@@H](CC)C(=O)O)CC[C@@H]1C)[C@H]1O[C@]2(C=C[C@@H](O)[C@]3(CC[C@@](C)([C@H]4CC[C@](O)(CC)[C@H](C)O4)O3)O2)[C@H](C)C[C@@H]1C | 113 | – | – | – | – | – | – | –
